Data on 48 compounds can be found in paper PMC4829348 (Journal of medicinal chemistry, 2016).

The first assay relates to A/WSN/33 virus (M2-S31N). Type of assay: cell-based, influenza A virus.
Conditions: not given
`c1c(CNC23CC4CC(CC(C4)C2)C3)noc1C1CC1` [14c]: the “decrease of plaque number” value is on record as “more than 50%”. In the case of `c1c(CNC23CC4CC(CC(C4)C2)C3)noc1C1CCC1` [14d], the “decrease of plaque number” value is recorded as “more than 50%”.

Still in this assay, the particulars now being: read-out: Plaque Reduction EC50.
Take `OC1C2CC3CC1CC(NCc1cc(-c4cccs4)on1)(C3)C2` (centres unmarked) [30b]: the concentration for a half-maximal effect (EC50) was under 1000 nM. As to `OC12CC3CC(C1)CC(NCc1cc(-c4cccs4)on1)(C3)C2` [compound 30f], the EC50 was under 1000 nM.

The next assay has as its target T1, S31N mutant of the A/M2 protein (Influenza A virus, UniProt P0DOF5, S31N). The following applies: 100 µM drug; percent inhibition in TEVC assays was previously reported; cited from earlier work.
As for `Cc1cc(CNC23CC4CC(CC(C4)C2)C3)no1` [14a], the “% S31N inhibition” value is recorded as 49/N.T. %. Turning to `c1ccc(-c2cc(CNC34CC5CC(CC(C5)C3)C4)no2)cc1` [14l], the “% S31N inhibition” value is 91/N.T. %.

Turning to `COc1ccc(-c2cc(CNC34CC5CC(CC(C5)C3)C4)no2)cc1` [14q], the “% S31N inhibition” value was 87/N.T. %.

Turning to `Cc1nc(CNC23CC4CC(CC(C4)C2)C3)no1` [18a], the “% S31N inhibition” value was 60/N.T. %. For the compound `CC(C)c1nc(CNC23CC4CC(CC(C4)C2)C3)no1` [18d], the “% S31N inhibition” value is given as 70/N.T. %. Turning to `c1csc(-c2nc(CNC34CC5CC(CC(C5)C3)C4)no2)c1` [18f], the “% S31N inhibition” value is given as 83/N.T. %.

For `c1ccc(-c2nc(CNC34CC5CC(CC(C5)C3)C4)no2)cc1` [18i], the “% S31N inhibition” value is given as 75/N.T. %. Regarding `COc1ccc(-c2nc(CNC34CC5CC(CC(C5)C3)C4)no2)cc1` [18k], the “% S31N inhibition” value is listed as 86/N.T. %.

Another assay has as its target T1, S31N mutant of the A/M2 protein. The class given is biochemical.
Conditions: not given
On to `CCCc1cc(CNC23CC4CC(CC(C4)C2)C3)no1` [14b], for which the “% S31N inhibition” value is 81/49%. Turning to `c1c(CNC23CC4CC(CC(C4)C2)C3)noc1C1CCC1` [14d], the “% S31N inhibition” value is reported as 84/N.T. %. Consider `COCc1cc(CNC23CC4CC(CC(C4)C2)C3)no1` [14e], for which the “% S31N inhibition” value is recorded as 39/N.T. %.

As to `CC(C)c1cc(CNC23CC4CC(CC(C4)C2)C3)no1` [14f], the “% S31N inhibition” value was 80/55%. For `CSC(C)(C)Cc1cc(CNC23CC4CC(CC(C4)C2)C3)no1` [14g], the “% S31N inhibition” value is given as 70/N.T. %. For the compound `c1cc(-c2cc(CNC34CC5CC(CC(C5)C3)C4)no2)cs1` [14i], the “% S31N inhibition” value was 90/N.T. %. For `c1coc(-c2cc(CNC34CC5CC(CC(C5)C3)C4)no2)c1` [14j], the “% S31N inhibition” value is 84/N.T. %. As for `COc1ccsc1-c1cc(CNC23CC4CC(CC(C4)C2)C3)no1` [14k], the “% S31N inhibition” value is reported as 90/87%. `Clc1ccccc1-c1cc(CNC23CC4CC(CC(C4)C2)C3)no1` [14m]: the “% S31N inhibition” value was 87/65%.

For `Brc1ccccc1-c1cc(CNC23CC4CC(CC(C4)C2)C3)no1` [14n], the “% S31N inhibition” value is 77/N.T. %.

Turning to `Fc1cc(F)cc(-c2cc(CNC34CC5CC(CC(C5)C3)C4)no2)c1` [14o], the “% S31N inhibition” value is recorded as 78/N.T. %. For the compound `Fc1cccc(F)c1-c1cc(CNC23CC4CC(CC(C4)C2)C3)no1` [14p], the “% S31N inhibition” value is 85/68%.

As for `COc1cccc(-c2cc(CNC34CC5CC(CC(C5)C3)C4)no2)c1` [14r], the “% S31N inhibition” value is 87/73%.

Regarding `CSc1ccccc1-c1cc(CNC23CC4CC(CC(C4)C2)C3)no1` [14s], the “% S31N inhibition” value was 79/N.T. %. As to `CCCc1nc(CNC23CC4CC(CC(C4)C2)C3)no1` [18b], the “% S31N inhibition” value was 77/19%. As for `CC(C)Cc1nc(CNC23CC4CC(CC(C4)C2)C3)no1` [18e], the “% S31N inhibition” value is given as 62/N.T. %. With `c1cc(-c2nc(CNC34CC5CC(CC(C5)C3)C4)no2)cs1` [18g], the “% S31N inhibition” value was 81/N.T. %. On to `c1coc(-c2nc(CNC34CC5CC(CC(C5)C3)C4)no2)c1` [18h], for which the “% S31N inhibition” value is on record as 73/N.T. %. `COc1ccc(-c2noc(CNC34CC5CC(CC(C5)C3)C4)n2)cc1OC` [20a]: the “% S31N inhibition” value was 39/N.T. %.

As to `COc1ccccc1-c1noc(CNC23CC4CC(CC(C4)C2)C3)n1` [20b], the “% S31N inhibition” value was 58/N.T. %. Regarding `c1c(C2CCCCC2)noc1CNC12CC3CC(CC(C3)C1)C2` [20c], the “% S31N inhibition” value is listed as 67/N.T. %. On to `c1csc(-c2nnc(CNC34CC5CC(CC(C5)C3)C4)o2)c1` [26a], for which the “% S31N inhibition” value was 52/N.T. %. On to `c1csc(-c2nnc(CNC34CC5CC(CC(C5)C3)C4)s2)c1` [26b], for which the “% S31N inhibition” value was 83/N.T. %.

Regarding `c1ccc(-c2nnc(CNC34CC5CC(CC(C5)C3)C4)o2)cc1` [26c], the “% S31N inhibition” value is on record as 61/N.T. %.

Consider `COc1ccc(-c2nnc(CNC34CC5CC(CC(C5)C3)C4)o2)cc1` [26d], for which the “% S31N inhibition” value was 58/N.T. %. Turning to `c1csc(-c2ncc(CNC34CC5CC(CC(C5)C3)C4)s2)c1` [26e], the “% S31N inhibition” value is recorded as 75/N.T. %.

For the compound `c1csc(-c2nc(CNC34CC5CC(CC(C5)C3)C4)cs2)c1` [26h], the “% S31N inhibition” value is listed as 37/N.T. %.

Consider `c1ccc(-c2nc(CNC34CC5CC(CC(C5)C3)C4)cs2)cc1` [26i], for which the “% S31N inhibition” value is on record as 24/N.T. %. For the compound `O=C1C2CC3CC1CC(NCc1cc(-c4cccs4)on1)(C3)C2` [30a], the “% S31N inhibition” value is given as 78/N.T. %.

Turning to `OC1C2CC3CC1CC(NCc1cc(-c4cccs4)on1)(C3)C2` (centres unmarked) [30b], the “% S31N inhibition” value is 91/56%. In the case of `CC1(O)C2CC3CC1CC(NCc1cc(-c4cccs4)on1)(C3)C2` (centres unmarked) [30c], the “% S31N inhibition” value is recorded as 87/48%.

Consider `c1csc(-c2cc(CNC34CC5CC(C3)C3(CO3)C(C5)C4)no2)c1` (centres unmarked) [30d], for which the “% S31N inhibition” value is on record as 61/N.T. %. In the case of `c1csc(-c2cc(CNC34CC5COC(CC(C5)C3)C4)no2)c1` (centres unmarked) [30e], the “% S31N inhibition” value is 72/N.T. %. As for `NC12CC3CC(CC(C3)C1)C2` [AMT (1), amantadine, reference compound], the “% S31N inhibition” value is on record as 36%. Turning to `Oc1ccc(NC23CC4CC(CC(C4)C2)C3)c(O)c1` [compound 5], the “% S31N inhibition” value is given as 67%.

Take `COc1ccc(-c2cc(CNC34CC5CC(CC(C5)C3)C4)no2)c(OC)c1` [compound 14t]: the “% S31N inhibition” value is given as 62/N.T. %. `COc1ccc(-c2nc(CNC34CC5CC(CC(C5)C3)C4)no2)c(OC)c1` [compound 18m]: the “% S31N inhibition” value is reported as 82/N.T. %.

`OC12CC3CC(O)(C1)CC(NCc1cc(-c4cccs4)on1)(C3)C2` [compound 30h]: the “% S31N inhibition” value is on record as 88/45%.

Broadly, the EC50 is the concentration at which the effect is half-maximal.
